# Tests used:
# Assay type in all cases: in vivo
# [1] = test system: cocklebur (Xanthium strumarium); assay: Test B pre-/postemergence plant response
# From the text: (§1) Seeds of plant species selected from blackgrass (Alopecurus myosuroides), downy bromegrass (Bromus tectorum), green foxtail (Setaria viridis), Italian ryegrass (Lolium multiflorum), wheat (Triticum aestivum), wild oat (Avena fatua), deadnettle (henbit deadnettle, Lamium amplexicaule), galium (catchweed bedstraw, Galium aparine), bermudagrass (Cynodon dactylon), Surinam grass (Brachiaria decumbens), cocklebur (Xanthium strumarium), corn (Zea mays), large crabgrass (Digitaria sanguinalis), woolly cupgrass (Eriochloa villosa), giant foxtail (Setaria faberii), goosegrass (Eleusine indica), johnsongrass (Sorghum halepense), kochia (Kochia scoparia), lambsquarters (Chenopodium album), morningglory (Ipomoea coccinea), nightshade (eastern black nightshade, Solanum ptycanthum), yellow nutsedge (Cyperus esculentus), pigweed (Amaranthus retroflexus), ragweed (common ragweed, Ambrosia elatior), Russian thistle (Salsola kali), soybean (Glycine max), sunflower (common oilseed sunflower, Helianthus annuus) and velvetleaf (Abutilon theophrasti) were planted into a blend of loam soil and sand and treated preemergence with test compounds formulated in a non-phytotoxic solvent mixture which included a surfactant.
# (§2) At the same time, plants selected from these crop and weed species and also winter barley (Hordeum vulgare), canarygrass (Phalaris minor), chickweed (Stellaria media) and windgrass (Apera spica-venti) were planted in pots containing Redi-Earth® planting medium (Scotts Company, 14111 Scottslawn Road, Marysville, Ohio 43041) comprising spaghnum peat moss, vermiculite, wetting agent and starter nutrients and treated with postemergence applications of some of the test chemicals formulated in the same manner. Plants ranged in height from 2 to 18 cm (1- to 4-leaf stage) for postemergence treatments.
# (§3) Treated plants and controls were maintained in a greenhouse for 13 to 15 days, after which time all treated plants were visually evaluated and compared to controls. Plant response ratings, summarized in Table B, are based on a scale of 0 to 100 where 0 is no effect and 100 is complete control. A dash (-) response means no test result.
# soybean (Glycine max) = assay: Test B pre-/postemergence plant response
# From the text: as §1, §2, §3
# [2] = test system: wheat (Triticum aestivum); assay: Test B pre-/postemergence plant response
# From the text: as §1, §2, §3
# [3] = test system: morningglory (Ipomoea coccinea); assay: Test B pre-/postemergence plant response
# From the text: as §1, §2, §3
# corn (Zea mays) = assay: Test A pre-/postemergence plant response
# Outline: (§4)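 Approximately ten days after concurrent pre- and postemergence spraying in a greenhouse, plants were compared with untreated controls and rated visually for injury, 0 = no effect to 100 = complete control. Preemergence spray was directed onto loam/sand soil; postemergence targeted 1–2 leaf seedlings.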
# [4] = test system: velvetleaf (Abutilon theophrasti); assay: Test A pre-/postemergence plant response
# Outline: as §4
# [5] = test system: pigweed (Amaranthus retroflexus); assay: Test A pre-/postemergence plant response
# Outline: as §4
# [6] = test system: barnyardgrass (Echinochloa crus-galli); assay: Test A pre-/postemergence plant response
# Outline: as §4
# [7] = test system: morningglory (Ipomoea spp.); assay: Test A pre-/postemergence plant response
# Outline: as §4
# [8] = test system: large crabgrass (Digitaria sanguinalis); assay: Test A pre-/postemergence plant response
# Outline: as §4
# [9] = test system: wheat (Triticum aestivum); assay: Test A pre-/postemergence plant response
# Outline: as §4
# [10] = test system: giant foxtail (Setaria faberii); assay: Test A pre-/postemergence plant response
# Outline: as §4
# [11] = 250 g ai/ha, Preemergence, 0 to 100 scale
# [12] = Postemergence, 31 g ai/ha, scale 0 to 100 (0 no effect, 100 complete control)
# [13] = Postemergence, 62 g ai/ha, scale 0 (no effect) to 100 (complete control), 13 to 15 days
# [14] = Postemergence, 125 g ai/ha, visual rating after 13 to 15 days, scale 0 (no effect) to 100 (complete control)
# [15] = Postemergence, 250 g ai/ha, scale 0 to 100
# [16] = Preemergence, 31 g ai/ha, scale 0 to 100 (0 no effect, 100 complete control)
# [17] = Preemergence, 62 g ai/ha, scale 0 to 100, 0 no effect, 100 complete control
# [18] = Preemergence, 125 g ai/ha, 0 to 100 scale
# [19] = Postemergence, 125 g ai/ha, visual injury, 0 to 100 scale (0 no effect, 100 complete control), approx. ten days
# [20] = Postemergence, 500 g ai/ha, 0 to 100 scale, 0 = no effect, 100 = complete control, approx. ten days
# [21] = Preemergence, 125 g ai/ha, 0 to 100 scale, 0 = no effect, 100 = complete control
# [22] = Preemergence, 500 g ai/ha, visual injury, 0 to 100 scale (0 no effect, 100 complete control), approx. ten days
substance,measurement,setting,value
5-[(2-hydroxy-6-oxo-1-cyclohexen-1-yl)carbonyl]-3-phenyl-2-(3-pyridinyl)-4(3H)-pyrimidone [Compound 113],"Plant response rating, Cocklebur",[1]; [11],75
same,"Plant response rating, Cocklebur",[1]; [12],45
same,"Plant response rating, Cocklebur",[1]; [13],45
same,"Plant response rating, Cocklebur",[1]; [14],65
same,Cocklebur plant response rating,[1]; [15],70
same,"Plant response rating, Cocklebur",[1]; [16],0
same,"Plant response rating, Cocklebur",[1]; [17],0
same,Cocklebur plant response rating,[1]; [18],0
same,"Plant response rating, Soybean",soybean (Glycine max); [11],30
same,"Plant response rating, Soybean",soybean (Glycine max); [12],60
same,"Plant response rating, Soybean",soybean (Glycine max); [13],65
same,"Plant response rating, Soybean",soybean (Glycine max); [14],75
same,Soybean plant response rating,soybean (Glycine max); [15],85
same,"Plant response rating, Soybean",soybean (Glycine max); [16],0
same,"Plant response rating, Soybean",soybean (Glycine max); [17],0
same,Soybean plant response rating,soybean (Glycine max); [18],20
same,"Plant response rating, Wheat",[2]; [11],0
same,"Plant response rating, Wheat",[2]; [12],0
same,"Plant response rating, Wheat",[2]; [13],0
same,"Plant response rating, Wheat",[2]; [14],10
same,Wheat plant response rating,[2]; [15],15
same,"Plant response rating, Wheat",[2]; [16],0
same,"Plant response rating, Wheat",[2]; [17],0
same,Wheat plant response rating,[2]; [18],0
same,"Plant response rating, Morningglory",[3]; [11],20
same,"Plant response rating, Morningglory",[3]; [12],15
same,"Plant response rating, Morningglory",[3]; [13],15
same,"Plant response rating, Morningglory",[3]; [14],15
same,Morningglory plant response rating,[3]; [15],20
same,"Plant response rating, Morningglory",[3]; [17],0
same,Morningglory plant response rating,[3]; [18],0
same,Corn plant response rating,corn (Zea mays); [19],0
same,"Plant response rating, Corn",corn (Zea mays); [20],40
same,"Plant response rating, Corn",corn (Zea mays); [21],0
same,"Plant response rating, Corn",corn (Zea mays); [22],0
same,Velvetleaf plant response rating,[4]; [19],100
same,"Plant response rating, Velvetleaf",[4]; [20],100
same,"Plant response rating, Velvetleaf",[4]; [21],60
same,"Plant response rating, Velvetleaf",[4]; [22],100
same,Pigweed plant response rating,[5]; [19],80
same,"Plant response rating, Pigweed",[5]; [20],100
same,"Plant response rating, Pigweed",[5]; [21],10
same,"Plant response rating, Pigweed",[5]; [22],80
same,Barnyardgrass plant response rating,[6]; [19],30
same,"Plant response rating, Barnyardgrass",[6]; [20],70
same,"Plant response rating, Barnyardgrass",[6]; [21],0
same,"Plant response rating, Barnyardgrass",[6]; [22],10
same,Morningglory plant response rating,[7]; [19],100
same,"Plant response rating, Morningglory",[7]; [20],100
same,"Plant response rating, Morningglory",[7]; [21],0
same,"Plant response rating, Morningglory",[7]; [22],40
same,"Crabgrass, Large plant response rating",[8]; [19],50
same,"Plant response rating, Crabgrass, Large",[8]; [20],70
same,"Plant response rating, Crabgrass, Large",[8]; [21],0
same,"Plant response rating, Crabgrass, Large",[8]; [22],40
same,Wheat plant response rating,[9]; [19],0
same,"Plant response rating, Wheat",[9]; [20],40
same,"Plant response rating, Wheat",[9]; [21],0
same,"Plant response rating, Wheat",[9]; [22],0
same,"Foxtail, Giant plant response rating",[10]; [19],40
same,"Plant response rating, Foxtail, Giant",[10]; [20],60
same,"Plant response rating, Foxtail, Giant",[10]; [21],0
same,"Plant response rating, Foxtail, Giant",[10]; [22],20

# Source: US8952024B2, “Herbicidal pyrimidone derivatives” (E I du Pont de Nemours and Company, priority 2009, dated 2015)
